From patent publication US6518307B2, “Control of microbial populations in the gastrointestinal tract of animals” (Lynntech, Inc., priority 2000, dated 2003)

Tests used:
[1] = test system: bacteria; experiment: In vitro bacterial kill in the presence of interfering compounds found in poultry ingesta; type: cell-based; conditions: in the presence of potentially interfering compounds of poultry ingesta
Excerpt: Organic compounds have been evaluated for biocidal efficacy in the upper GI tract of poultry, including D-limonene. […] Organic acids have also found utility as a drinking water biocide for gut bacteria.

[2] = cited from earlier work
[3] = test system: bacteria in the crops of market-age broilers; experiment: Biocidal effect of a drinking water oxidant in the crops of market-age broilers; type: in vivo; conditions: dissolved in drinking water
Procedure: A variety of chemicals have been evaluated for efficacy as a drinking water-based biocide for administration to birds during the period of feed withdrawal. […] It was found, however, that the biocidal effect of this dissolved, short-lived oxidant was minimal in the crops of market-age broilers. This ineffectiveness is thought to be due primarily to the high ozone demand of the ingesta itself, which consumes the majority of the ozone and subsequently prevents delivery of sufficient ozone to the bacteria surfaces.

[4] = test system: Salmonella enteritidis; experiment: In vitro reduction of Salmonella enteritidis in the presence of autoclaved broiler feed; type: cell-based; conditions: 1 h, 37° C.
Procedure: Another study was performed to determine the bactericidal effects of the same three peracids investigated in the first study. Eleven tubes were filled with 0.5 g of autoclaved broiler feed to which 100 ul of a Salmonella enteritidis culture broth was added. Two of the tubes were additionally filled with 1.9 ml of distilled water and the remaining nine were filled with an additional 1.7 ml of H2O. The peracids were added to the nine tubes to achieve a 0.0125% of each of the three peracids and two subsequent dilutions to achieve 0.00625% and 0.003125% of each. The samples were incubated at 37° C. and vortexed. After 1 h, the samples were plated and diluted to yield a plate count of 10^4 and 10^3 cfu/ml

[5] = in water, alcohol, ether, and sulfuric acid; cited from earlier work
[6] = test system: Salmonella enteritidis; experiment: Reduction of Salmonella in broiler crops, peracid in drinking water during 8 h feed withdrawal (Example 6); type: in vivo; conditions: 8 h exposure, broilers
Procedure: To determine the biocidal effect of perlactic and percitric on Salmonella in the upper GI tract (crops) of broiler chickens, peracid solutions were added to the drinkers such that the concentration of perlactic was 0.006 or 0.003% and percitric was at a 0.03% concentration. The birds were deprived of water for 8 h prior to an 8 h feed withdrawal period and allowed to drink the water for 8 h. Prior to reintroduction of the water with the test compounds, the birds were gavaged with 1 ml of 10^8 Salmonella. After the 8 h test consumption, the birds were terminated, the crops removed aseptically, stomached for 30 seconds, diluted and plated onto BGA with NO/NA.

[7] = test system: Salmonella enteritidis; experiment: Reduction of Salmonella in broiler crops under different consumption pressures (Example 7); type: in vivo; conditions: 0.003125% (30 ppm) in drinking water
Procedure: Another experiment was designed to further characterize the disinfection effect of perlactic acids when different consumption pressures were placed on 8 week-old broilers. All of the birds had the feed removed 8 hours prior to slaughter. Perlactic acid was added at 0.003125% (30 ppm) to the drinking water for the last 8 hours of the study (feed withdrawal period). The first treatment group had water removed 8 hours prior to the 8 h feed withdrawal (PL 8-8-8) and the second treatment group had only feed withdrawal/perlactic treatment (PL 8—8). The last group had access to the peracid in their drinking water 12 hours prior to slaughter and the feed taken up 4 hours after that yielding a final feed withdrawal time of 8 h (PL 12-8). At the conclusion of the study, the crops were processed microbiologically similar to the methods described for FIG. 3.

[8] = test system: Salmonella enteritidis; experiment: Reduction of Salmonella in crops of SE challenged broilers, perlactic acid vs lactic acid and hydrogen peroxide (Example 8); type: in vivo; conditions: 30 ppm in drinking water for 8 hours
Procedure: In the final broiler study, forty-five 8-week old broilers were divided up into 3 groups with […]. Upon feed withdrawal, all birds were gavaged with 1 ml of a 1×10^8 challenge of Salmonella enteritidis. At this time, all feed was removed and the drinking water treatments administered. […] All groups received the same withdrawal time of 8 hours. At the time of kill, the crops were aseptically collected after cervical dislocation. The crops were added to […] bags containing 10 ml of PBS. The bags were stomached for 30 sec where upon 250 μl were removed and added to 2.25 ml of PBS. […] Groups 2 and 3 were directly plated from the […] bags by taking 100 μl from the bag and spread plating it onto BGA plates. These plates were incubated for 24 hrs at 37° C. The plates were counted for CFUs and log 10 reductions. After the bags had been used for dilution purposes, 9.0 ml of tetrathionate broth was added for enrichment purposes. These bags were incubated along with the plates. 24 hours later, 1 loopful of the bag contents were streaked onto BGA plates for +/- observations.

[9] = all concentrations (0.0125%, 0.00625%, 0.003125%)
[10] = highest concentration (0.0125%)

C=C(C)[C@H]1CC=C(C)CC1 [D-limonene]
in vitro antibacterial effect [1]: excellent bacterial kills

OO [HP, hydrogen peroxide, reference compound]
loss of active ingredients ([2]; 30 to 90% solution): less than 1 % per year

O=[O+][O-] [Ozone]
biocidal effect in the crops [3]: minimal

CC(=O)O [acetic acid]
in vitro antibacterial effect [1]: excellent in vitro antibacterial capability

CC(=O)OO [peracetic acid]
biocidal effect on Salmonella enteritidis [4, 9]: poor biocide
time to lose half its strength through hydrolysis ([2]; 1% solution): 6 days
solubility [5]: freely soluble

CC(O)C(=O)OO (centres unmarked) [perlactic acid]
biocidal effect on Salmonella enteritidis [4, 9]: showed a disinfection efficacy at all concentrations
biocidal effect on Salmonella enteritidis [4, 10]: eliminated the Salmonella to levels that fell below the detection limit of this assay
log reduction of Salmonella in the crop ([6]; 0.003% in drinking water): two
reduction of Salmonella in the crop ([6]; 0.006 or 0.003% in drinking water): multiple log reduction
effectiveness in reducing Salmonella in crops compared to FIG. 3 ([7]; same concentrate used 1 week later): diminished
influence of increased exposure time or water deprivation prior to feed withdrawal on biocidal effect ([7]; PL 8-8-8, PL 8-8, PL 12-8): does not increase the biocidal effect
reduction in Salmonella in the crop as compared to the control [8]: 2.71 Log10

percitric acid
biocidal effect on Salmonella enteritidis ([4]; diluted samples (0.00625%, 0.003125%)): not as efficient
biocidal effect on Salmonella enteritidis [4, 10]: significant biocidal effects
reduction of Salmonella in the crop ([6]; 0.03% in drinking water): multiple log reduction
